The experiment has as its system lymphocytic leukemia P388. The experiment is described as follows: Lymphocytic Leukemia P388 Test. The following applies: for Median Survival: BDF1 mice; for response vs control in vivo at 0.75 mg/kg / response vs control in vivo at 1.5 mg/kg / response vs control in vivo at 3 mg/kg: Mus musculus, P388, ip. The experiment is classed as in vivo, BDF1 mice. Here is the method: The animals used were BDF1 mice, all of one sex, weighing a minimum of 18 g and all within a 3 g weight range. There were 5 or 6 mice per test group. The tumor transplant was by intraperitoneal injection of 0.5 ml of dilute ascitic fluid containing 10^6 cells of lymphocytic leukemia P388. The test compounds were administered intraperitoneally on days 1, 5 and 9 (relative to tumor inocu-lation) at various doses. The animals were weighed and survivors recorded on a regular basis for 60 days. The median survival time and the ratio of survival time for treated (T)/control (C) animals were calculated.

The mark [1] stands for this setting: dose 0.75 mg/kg intraperitoneally on days 1, 5 and 9.
The mark [2] stands for this setting: dose 0.75 mg/kg intraperitoneally on days 1, 5 and 9, ratio of survival time treated/control.
Where [3] appears, read: dose 1.5 mg/kg intraperitoneally on days 1, 5 and 9.
[4] abbreviates: dose 1.5 mg/kg intraperitoneally on days 1, 5 and 9, ratio of survival time treated/control.
Where [5] appears, read: dose 3 mg/kg intraperitoneally on days 1, 5 and 9.
Setting [6] is: dose 3 mg/kg intraperitoneally on days 1, 5 and 9, ratio of survival time treated/control.

Read-outs that look alike come from different tables or passages of the source.

`C[C@H](N)C(=O)NCCNc1ccc(NCCNC(=O)[C@H](C)N)c2c1C(=O)c1c(O)ccc(O)c1C2=O.Cl.Cl` (stereo in doubt) [Example 16, [S-(R*,R*)]-N,N'-[(9,10-Dihydro-5,8-dihydroxy-9,10-dioxo-1,4-anthracenediyl)bis(imino-2,1-ethanediyl)]bis-[2-aminopropanamide], dihydrochloride]: the “Median Survival” value under setting [1] was 25.5 days, the “Median Survival” value under setting [3] is 52.5 days and the “Median Survival” value under setting [5] is 42.5 days. Further, the “T/C × 100 (%)” value is, setting by setting: under setting [2], 232%; under setting [4], 477%; under setting [6], 386%.

For the molecule `CC(C)C[C@H](N)C(=O)NCCNc1ccc(NCCNC(=O)[C@@H](N)CC(C)C)c2c1C(=O)c1c(O)ccc(O)c1C2=O.Cl.Cl` (stereo in doubt) [Example 18, [S-(R*,R*)]-N,N'-[(9,10-Dihydro-5,8-dihydroxy-9,10-dioxo-1,4-anthracenediyl)bis(imino-2,1-ethanediyl)]bis-[-amino-4-methylpentanamide], dihydrochloride], the “Median Survival” value under setting [1] worked out at 25.5 days, the “Median Survival” value under setting [3] amounted to 26.0 days and the “Median Survival” value under setting [5] is 18.0 days. Also, the “T/C × 100 (%)” value is 213% under setting [2], 217% under setting [4] and 150% under setting [6].

As for `CC(C)C[C@@H](N)C(=O)NCCNc1ccc(NCCNC(=O)[C@H](N)CC(C)C)c2c1C(=O)c1c(O)ccc(O)c1C2=O.Cl.Cl` (stereo in doubt) [Example 20, [(R*,R*)]-N,N'-[(9,10-Dihydro-5,8-dihydroxy-9,10-dioxo-1,4-anthracenediyl)bis(imino-2,1-ethanediyl)]bis-[2-amino-4-methylentanamide], dihydrochloride], the “Median Survival” value under setting [1] was 20.5 days, the “Median Survival” value under setting [3] stood at 22.5 days and the “Median Survival” value under setting [5] was found to be 23.5 days. Besides, the “T/C × 100 (%)” value under setting [2] was determined as 171%, the “T/C × 100 (%)” value under setting [4] turned out to be 188% and the “T/C × 100 (%)” value under setting [6] came to 196%.

Regarding `C[C@@H](N)C(=O)NCCNc1ccc(NCCNC(=O)[C@@H](C)N)c2c1C(=O)c1c(O)ccc(O)c1C2=O.Cl.Cl` (stereo in doubt) [Example 25, [R-(R*,R*)]-N,N'-[(9,10-Dihydro-5,8-dihydroxy-9,10-dioxo-1,4-anthracenediyl)bis(imino-2,1-ethanediyl)]bis-[2-aminopropanamide], dihydrochloride], the “Median Survival” value reads like this: under setting [1], 19.0 days; under setting [3], 20.0 days; under setting [5], 24.0 days. Also, the “T/C × 100 (%)” value by setting is: under setting [2], 173%; under setting [4], 182%; under setting [6], 218%.

Turning to `Br.Br.CC(C)C[C@H](N)C(=O)NCCNc1ccc(NCCNC(=O)[C@@H](N)CC(C)C)c2c1C(=O)c1c(O)ccc(O)c1C2=O` (stereo in doubt) [Example 31, [S-(R*,R*)]-N,N'-[(9,10-Dihydro-5,8-dihydroxy-9,10-dioxo-1,4-anthracenediyl)bis(imino-2,1-ethanediyl)]bis[2-amino-4-methylpentanamide], dihydrobromide], the “Median Survival” value runs as follows: under setting [1], 17.5 days; under setting [3], 18.0 days; under setting [5], 21.0 days. For the same molecule, the “T/C × 100 (%)” value under setting [2] was found to be 175%, the “T/C × 100 (%)” value under setting [4] amounted to 180% and the “T/C × 100 (%)” value under setting [6] is 210%.

Take `C[C@H](NC(=O)OC(C)(C)C)C(=O)N[C@@H](C)C(=O)N(CCNc1ccc(NCCN(C(=O)[C@H](C)NC(=O)[C@H](C)NC(=O)OC(C)(C)C)[C@@H](C)C(=O)O)c2c1C(=O)c1c(O)ccc(O)c1C2=O)[C@@H](C)C(=O)O` [Example 7., N,N'-[(9,10-Dihydro-5,8-dihydroxy-9,10-dioxo-1,4-anthracenediyl)bis(imino-2,1-ethanediyl)]bis[N-[(1,1-dimethylethoxy)carbonyl]-L-alanyl-L-alanyl-L-alanine]]: for the setting “read-out: T/C × 100 (%)”, the response vs control in vivo at 0.75 mg/kg worked out at 176%, the response vs control in vivo at 1.5 mg/kg was 171% and the response vs control in vivo at 3 mg/kg was found to be 181%. Also, the “Median Survival” value under setting [1] was 18.5 days. Also, the “Median Survival” value under setting [3] was 18.0 days. The “Median Survival” value under setting [5] was found to be 19.0 days.

Turning to `CC(C)CC(N)C(=O)N(CCO)CCNc1ccc(NCCN(CCO)C(=O)C(N)CC(C)C)c2c1C(=O)c1c(O)ccc(O)c1C2=O.Cl.Cl` (stereo not drawn) [Example 28, N,N'-[(9,10-Dihydro-5,8-dihydroxy-9,10-dioxo-1,4-anthracenediyl)bis(imino-2,1-ethanediyl)]bis[2-amino-N-(2-hydroxyethyl)-4-methylpentanamide], dihydrochloride], the response vs control in vivo at 0.75 mg/kg (dose 0.75 mg/kg intraperitoneally on days 1, 5 and 9, ratio of survival time treated/control, read-out: T/C × 100 (%)) was found to be 109%. For the same molecule, the response vs control in vivo at 1.5 mg/kg (dose 1.5 mg/kg intraperitoneally on days 1, 5 and 9, ratio of survival time treated/control, read-out: T/C × 100 (%)) came out at 127%. In addition, the response vs control in vivo at 3 mg/kg (dose 3 mg/kg intraperitoneally on days 1, 5 and 9, ratio of survival time treated/control, read-out: T/C × 100 (%)) amounted to 155%. Also, the “Median Survival” value by setting is: under setting [1], 12.0 days; under setting [3], 14.0 days; under setting [5], 17.0 days.

Regarding `Br.Br.CC(C)C[C@H](N)C(=O)N[C@@H](C)C(=O)NCCNc1ccc(NCCNC(=O)[C@H](C)NC(=O)[C@@H](N)CC(C)C)c2c1C(=O)c1c(O)ccc(O)c1C2=O` [Example 50, N,N'-[(9,10-Dihydro-5,8-dihydroxy-9,10-dioxo-1,4-anthracenediyl)bis(imino-2,1-ethanediyl)]bis[L-leucyl-L-alaninamide], dihydrobromide], the response vs control in vivo at 0.75 mg/kg (read-out: T/C × 100 (%), dose 0.75 mg/kg intraperitoneally on days 1, 5 and 9, ratio of survival time treated/control) is 170%. Further, where the note is “read-out: T/C × 100 (%), dose 1.5 mg/kg intraperitoneally on days 1, 5 and 9, ratio of survival time treated/control”, the response vs control in vivo at 1.5 mg/kg is 200%. Further, the response vs control in vivo at 3 mg/kg (read-out: T/C × 100 (%), dose 3 mg/kg intraperitoneally on days 1, 5 and 9, ratio of survival time treated/control) was 200%. Also, the “Median Survival” value came to 17.0 days under setting [1], 20.0 days under setting [3] and 20.0 days under setting [5].

In the case of `CC(C)C[C@H](NC(=O)OCc1ccccc1)C(=O)N[C@@H](C)C(=O)N[C@@H](CC(C)C)C(=O)NCCNc1ccc(NCCNC(=O)[C@H](CC(C)C)NC(=O)[C@H](C)NC(=O)[C@H](CC(C)C)NC(=O)OCc2ccccc2)c2c1C(=O)c1c(O)ccc(O)c1C2=O` [Example 51], the “Median Survival” value under setting [1] was determined as 20.0 days, the “Median Survival” value under setting [3] was determined as 19.0 days and the “Median Survival” value under setting [5] was 17.0 days. Also, the “T/C × 100 (%)” value is, setting by setting: under setting [2], 182%; under setting [4], 173%; under setting [6], 155%.

On to `Br.Br.CC(C)C[C@H](NC(=O)[C@H](C)NC(=O)[C@@H](N)CC(C)C)C(=O)NCCNc1ccc(NCCNC(=O)[C@H](CC(C)C)NC(=O)[C@H](C)NC(=O)[C@@H](N)CC(C)C)c2c1C(=O)c1c(O)ccc(O)c1C2=O` [Example 52, N,N'-[(9,10-Dihydro-5,8-dihydroxy-9,10-dioxo-1,4-anthracenediyl)bis(imino-2,1-ethanediyl)]bis[L-leucyl-L-Alanyl-L-leucinamide]dihydrobromide], for which the “Median Survival” value was determined as 20.5 days under setting [1], 25.5 days under setting [3] and 25.0 days under setting [5]. Moreover, the “T/C × 100 (%)” value under setting [2] was 205%, the “T/C × 100 (%)” value under setting [4] stood at 255% and the “T/C × 100 (%)” value under setting [6] is 250%.

Consider `O=C(CNC(=O)OCc1ccccc1)N[C@@H](Cc1ccccc1)C(=O)NCCNc1ccc(NCCNC(=O)[C@H](Cc2ccccc2)NC(=O)CNC(=O)OCc2ccccc2)c2c1C(=O)c1c(O)ccc(O)c1C2=O` [Example 53], for which the “Median Survival” value under setting [1] was 18.5 days, the “Median Survival” value under setting [3] was 17.5 days and the “Median Survival” value under setting [5] amounted to 19.0 days. The “T/C × 100 (%)” value under setting [2] was 168%, the “T/C × 100 (%)” value under setting [4] is reported as 159% and the “T/C × 100 (%)” value under setting [6] amounted to 173%.

The values above are taken from patent publication US4732970A, “Antitumor amino acid and peptide derivatives of 1,4-bis(aminoalkyl and hydroxy-aminoalkyl)amino)-5,8-dihydroxyanthraquinones” (priority 1986, dated 1988).
